Publication PMC8778818, “Synthesis, Structural Characterization and Anticancer Activity of New 5-Trifluoromethyl-2-thioxo-thiazolo[4,5-d]pyrimidine Derivatives” (Pharmaceuticals, 2022)

Key:
[1] = test system: K-562; experiment: NCI-60 screen, Leukemia K-562; format: cell-based, human; conditions: for Growth of Cells (%): K-562, 10^−5 M one dose
[2] = test system: HL-60(TB); experiment: NCI-60 screen, Leukemia HL-60(TB); format: cell-based, human; conditions: for Growth of Cells (%): 10^−5 M one dose
[3] = test system: MDA-MB-231/ATCC; experiment: NCI-60 screen, Breast Cancer MDA-MB-231/ATCC; format: cell-based; conditions: for Growth of Cells (%): 10^−5 M one dose
[4] = test system: IGROV1; experiment: NCI-60 screen, Ovarian Cancer IGROV1; format: cell-based; conditions: for Growth of Cells (%): IGROV1, 10^−5 M one dose
[5] = test system: COLO-205; experiment: NCI-60 screen, Colon Cancer COLO-205; format: cell-based, human; conditions: for Growth of Cells (%): COLO-205, 10^−5 M one dose
[6] = test system: HCT-15; experiment: NCI-60 screen, Colon Cancer HCT-15; format: cell-based; conditions: for Growth of Cells (%): HCT-15, 10^−5 M one dose
[7] = test system: SF-268; experiment: NCI-60 screen, CNS Cancer SF-268; format: cell-based, human; conditions: for Growth of Cells (%): SF-268, 10^−5 M one dose
[8] = test system: SW620; experiment: NCI-60 screen, Colon Cancer SW620; format: cell-based, human; conditions: for Growth of Cells (%): SW620, 10^−5 M one dose
[9] = test system: MCF-7/WT; experiment: MTT cell viability assay, MCF-7/WT; format: cell-based; conditions: Homo sapiens, MCF7, 72 h, mean ± SD
Procedure: Twelve compounds (2a-e, 3a-d and 4a-c) at a concentration range of 50–5000 μM were tested for their antiproliferative potential against four human cancer cell lines (A375—melanotic melanoma, C32—amelanotic melanoma, DU145—prostate cancer androgen-independent, MCF-7/WT—breast adenocarcinoma) and two normal cell lines: Chinese Hamster Ovary (CHO-K1) and immortalized human keratinocytes from histologically normal skin (HaCaT).
To determine the antiproliferative activity of newly synthesized compounds, the following cell lines were used: human melanotic melanoma cell line (A375), human amelanotic melanoma cell line (C32), human breast adenocarcinoma cell line (MCF-7/WT), human prostate cancer androgen-independent (DU145) and two normal cell lines: hamster ovarian (CHO-K1) and immortalized human keratinocytes from histologically normal skin (HaCaT). The cells were obtained from the cell line bank of the Department of Molecular and Cellular Biology, Wroclaw Medical University. A375, C32, MCF-7/WT, DU145 and HaCaT cells were grown in a monolayer cultured in Dulbecco’s Modified Eagle’s Medium (DMEM, Sigma-Aldrich, Poznań, Poland), supplemented with 10% of fetal bovine serum (FBS, Gibco, Paisley, UK) and 1% of antibiotics (penicillin/streptomycin, Sigma-Aldrich) and CHO-K1 were grown in HAM’s F-12 medium (Sigma-Aldrich), supplemented with 10% fetal bovine serum (FBS, Gibco) and 1% of antibiotics (penicillin/streptomycin, Sigma-Aldrich). Cell lines were cultured in the polystyrene flasks 25 or 75 cm^2 (Thermo Fisher Scientific, Waltham, MA, USA), which were stored in 37 °C and 5% CO2 in a humidified 95% atmosphere (SteriCult, Thermo Scientific, Alab). The cell medium was exchanged twice a week. The exponentially growing cells were used throughout the experiments. The cells were rinsed with phosphate-buffered saline (PBS, Sigma-Aldrich) and trypsinized by Trypsin-EDTA 0.25% solution (Sigma-Aldrich).
The influence of the compounds was performed in a monolayer culture on cancer and normal cells. Compounds were initially dissolved in DMSO; further dilutions of the compound were performed in Dulbecco’s Modified Eagle’s Medium supplemented with 10% FBS. Compounds were tested in a 50–5000 µM concentration range. In the in vitro experiments, the concentrations of DMSO in the final solution of the compounds were used 0.05%; 0.1%; 0.5%; 1%, respectively.
Cell viability was determined using the MTT colorimetric assay. All cell lines were seeded into 96-well plates to a density of 3 × 10^4 cells/well. After 24 h, the culture supernatants were removed and appropriate dilutions of compounds in the culture medium (200 µL/well) were added to the cells’ monolayer cultures and incubated for an additional 72 h. After 72 h of exposition to the compounds and the removal of the culture medium, cell viability was determined by reducing the yellow dye 3-(4,5-dimethyl-2-thiazol)-2,5-diphenyl-2H-tetrazolium bromide (MTT assay, Sigma Saint Louis, MO, USA; In Vitro Toxicology Assay) to a blue formazan product. The absorbance of the resulting solutions in three duplicate experiments was measured at the wavelength of 560 nm in a microplate reader (EnSpire, Perkin Elmer, Kraków, Poland). MTT assay is a colorimetric method that estimates the rate of metabolism in viable cells. Absorbance is directly proportional to the number of viable cells. All the experiments were performed three times and the mean absorbance values were calculated. The methodology for the evaluation of the growth of human cancer and normal cells was described previously. The cell viability in each group was expressed as a percentage of control (untreated) cells.

[10] = test system: NCI-H322M; experiment: NCI-60 screen, Non-Small Cell Lung Cancer NCI-H322M; format: cell-based, human; conditions: for Growth of Cells (%): 10^−5 M one dose
[11] = test system: RXF 393; experiment: NCI-60 screen, Renal Cancer RXF 393; format: cell-based, human; conditions: for Growth of Cells (%): RXF 393, 10^−5 M one dose
[12] = MTT cell viability assay, HaCaT; format: cell-based, human; conditions: HaCaT keratinocytes (normal cell line), HaCaT human keratinocytes, 50 µM
Outline: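 Viability after 72 h compound exposure (50–5000 µM), determined colorimetrically by MTT at 560 nm and reported as percent of untreated control.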

[13] = test system: M14; experiment: cells; conditions: Homo sapiens
[14] = Homo sapiens, five doses 10^−4–10^−8 M
[15] = Homo sapiens, COLO-205, five doses 10^−4–10^−8 M
[16] = Homo sapiens, SW-620, SW620, five doses 10^−4–10^−8 M

## O=c1[nH]c(C(F)(F)F)nc2c1sc(=S)n2-c1ccccc1 [Compound 2b, 3-phenyl-2-thioxo-5-(trifluoromethyl)-2,3-dihydro[1, 3]thiazolo[4,5-d]pyrimidin-7(6H)-one]
[1]
  Growth of Cells (%): 115.47%
[2]
  Growth of Cells (%): 149.39%
[3]; MDA-MB-231/ATCC
  Growth of Cells (%): 107.13%
[4]
  Growth of Cells (%): −5.14%
[5]
  Growth of Cells (%): 114.26%
[6]
  Growth of Cells (%): 106.95%
[7]
  Growth of Cells (%): 101.77%
[8]
  Growth of Cells (%): 95.09%
[9]
  IC50: 557 ± 22.9 µM
[10]
  Growth of Cells (%): 128.80%
[11]
  Growth of Cells (%): 95.34%

## FC(F)(F)c1nc(Cl)c2sc(=S)n(-c3ccccc3)c2n1 [Compound 3b, 7-chloro-3-phenyl-5-(trifluoromethyl)[1, 3]thiazolo[4,5-d]pyrimidine-2(3H)-thione]
[12]
  viability at 72 h, 50 µM: 20%
[1]; Homo sapiens, K562, K-562, five doses 10^−4–10^−8 M
  GI50: 0.692 µM
[1]; Homo sapiens, K562, K-562, five doses 10^−4–10^−8 M, read-out: log LC50 (the source's name) (converted)
  CC50: > 100 µM
[1]
  Growth of Cells (%): 33.07%
[1]; K-562, five doses 10^−4–10^−8 M
  log TGI: −5.36 log M
[2]
  Growth of Cells (%): −41.20%
[2]; [14]
  GI50: 1.55 µM
[2]; five doses 10^−4–10^−8 M
  log TGI: −5.41 log M
[3]; Homo sapiens, MDA-MB-231, read-out: log GI50 (converted)
  GI50: 2 µM
[3]; Homo sapiens, MDA-MB-231/ATCC, five doses 10^−4–10^−8 M, read-out: log LC50 (the source's name) (converted)
  CC50: 7.59 µM
[3]; MDA-MB-231/ATCC
  Growth of Cells (%): 13.85%
[3]; MDA-MB-231/ATCC, five doses 10^−4–10^−8 M
  log TGI: −5.41 log M
[4]; Homo sapiens, IGROV-1, IGROV1, five doses 10^−4–10^−8 M
  GI50: 1.95 µM
[4]; Homo sapiens, IGROV-1, IGROV1, five doses 10^−4–10^−8 M, read-out: log LC50 (the source's name) (converted)
  CC50: 7.59 µM
[4]
  Growth of Cells (%): 63.57%
[4]; IGROV1, five doses 10^−4–10^−8 M
  log TGI: −5.41 log M
[5]
  Growth of Cells (%): 30.63%
[5]; COLO-205, five doses 10^−4–10^−8 M
  log TGI: −5.44 log M
[5]; [15]
  GI50: 1.95 µM
  LC50: 6.61 µM
[13]; M14, read-out: log GI50 (converted)
  GI50: 2 µM
[13]; M14, read-out: log LC50 (converted)
  CC50: 8.32 µM
[6]
  Growth of Cells (%): 2.98%
[6]; HCT-15, five doses 10^−4–10^−8 M
  log TGI: −5.26 log M
[6]; Homo sapiens, HCT-15, read-out: log GI50 (converted)
  GI50: 1.86 µM
[6]; Homo sapiens, HCT-15, five doses 10^−4–10^−8 M, read-out: log LC50 (the source's name) (converted)
  CC50: > 100 µM
[7]; Homo sapiens, SF-268, five doses 10^−4–10^−8 M
  GI50: 1.78 µM
[7]; Homo sapiens, SF-268, five doses 10^−4–10^−8 M, read-out: log LC50 (the source's name) (converted)
  CC50: 6.61 µM
[7]
  Growth of Cells (%): 84.73%
[8]; [16]
  GI50: 2.14 µM
  LC50 (50% lethal concentration): 21.4 µM
[8]
  Growth of Cells (%): −63.05%
[8]; SW620, five doses 10^−4–10^−8 M
  log TGI: −5.32 log M
[9]
  IC50: 49 ± 1 µM
[10]
  Growth of Cells (%): 101.54%
[10]; [14]
  GI50: 3.8 µM
[10]; Homo sapiens, five doses 10^−4–10^−8 M, read-out: log LC50 (the source's name) (converted)
  CC50: 38 µM
[10]; five doses 10^−4–10^−8 M
  log TGI: −4.90 log M
[11]; Homo sapiens, RXF 393, five doses 10^−4–10^−8 M
  GI50: 1.82 µM
[11]; Homo sapiens, RXF 393, five doses 10^−4–10^−8 M, read-out: log LC50 (the source's name) (converted)
  CC50: 6.17 µM
[11]
  Growth of Cells (%): −16.27%
[11]; RXF 393, five doses 10^−4–10^−8 M
  log TGI: −5.47 log M

## CCNc1nc(C(F)(F)F)nc2c1sc(=S)n2-c1ccccc1 [Compound 4b, 7-(ethylamino)-3-phenyl-5-(trifluoromethyl)[1, 3]thiazolo[4,5-d]pyrimidine-2(3H)-thione]
[1]
  Growth of Cells (%): 102.59%
[2]
  Growth of Cells (%): 98.91%
[3]; MDA-MB-231/ATCC
  Growth of Cells (%): 85.06%
[4]
  Growth of Cells (%): 101.57%
[5]
  Growth of Cells (%): 105.73%
[6]
  Growth of Cells (%): 94.67%
[7]
  Growth of Cells (%): 104.72%
[8]
  Growth of Cells (%): 106.24%
[9]
  IC50: 686 ± 29.3 µM
[11]
  Growth of Cells (%): 100.09%

## Fc1ccc(CNc2nc(C(F)(F)F)nc3c2sc(=S)n3-c2ccccc2)cc1 [Compound 4c]
[1]
  Growth of Cells (%): 107.45%
[2]
  Growth of Cells (%): 93.41%
[3]; MDA-MB-231/ATCC
  Growth of Cells (%): 119.48%
[4]
  Growth of Cells (%): 109.98%
[5]
  Growth of Cells (%): 112.07%
[6]
  Growth of Cells (%): 103.39%
[7]
  Growth of Cells (%): 109.32%
[8]
  Growth of Cells (%): 114.74%
[9]
  IC50: 568 ± 24.8 µM
[11]
  Growth of Cells (%): 104.44%
